Data as given in PubChem BioAssay (NCI).
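Cultured in 96-well plates, cells were exposed to test compound for 48 hours across five concentrations. GI50: concentration for 50% inhibition of growth. TGI: concentration producing complete growth inhibition.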

Key:
Assay in all cases: NCI anticancer screen, dose series, 48 h
[1] = system: OVCAR-8 ovarian
[2] = system: HT29 colon
[3] = system: NCI-H522 lung
[4] = system: HS 578T breast
[5] = system: 786-0 renal
[6] = system: SN12C renal
[7] = system: NCI-H460 lung
[8] = system: UACC-62 melanoma
[9] = system: T-47D breast
[10] = system: MDA-N
[11] = system: ACHN renal
[12] = system: K-562 leukemia

## C=CCCCCOC1C=CC(OC(C)=O)C(COC(C)=O)O1 (configuration not stated)
[1]
  TGI: > 100 µM
[2]
  TGI: > 100 µM
[3]
  TGI: > 100 µM
[4]
  TGI: > 100 µM
[5]
  TGI: > 100 µM
[6]
  TGI: > 100 µM
[7]
  TGI: > 100 µM
[8]
  TGI: > 100 µM
[9]
  TGI: > 100 µM
[10]
  TGI: > 100 µM
[11]
  TGI: > 100 µM

## CSC1=N/C(=C\c2cccs2)C(=O)N1CN1CCOCC1
[1]
  TGI: > 100 µM
[2]
  TGI: > 100 µM
[3]
  TGI: > 100 µM
[4]
  TGI: > 100 µM
[5]
  TGI: > 100 µM
[6]
  TGI: > 100 µM
[8]
  TGI: > 100 µM
[10]
  TGI: > 100 µM
[12]
  TGI: > 100 µM
[11]
  TGI: > 100 µM

## COC1/C=C/C(C)C(OC)CC(O)/C=C/C(C)C(C(C)C(OC)C(C)CCC(=O)C(C)C(C/C=C/N(C)C=O)OC)OC(=O)/C=C/C=C(\C)CC(OC)C(OC)C2=CC(=O)O[C@@H](C(C)C(OC)C1)[C@H]2O (some centres not stated)
[1]
  TGI: 0.199 µM
[2]
  TGI: > 25 µM
[3]
  TGI: 0.0722 µM
[4]
  TGI: 0.093 µM
[5]
  TGI: 0.113 µM
[6]
  TGI: > 25 µM
[7]
  TGI: 0.188 µM
[8]
  TGI: 0.185 µM
[9]
  TGI: 0.151 µM
[10]
  TGI: 0.159 µM
[11]
  TGI: 0.158 µM

## NCCCNCCSSCc1ccccc1CSSCCNCCCN
[1]
  TGI: > 100 µM
[2]
  TGI: 27.4 µM
[3]
  TGI: 26.7 µM
[6]
  TGI: > 100 µM
[7]
  TGI: > 100 µM
[8]
  TGI: > 100 µM
[12]
  TGI: > 100 µM
[11]
  TGI: > 100 µM

## CCN(CC)CCNc1ccc([N+](=O)[O-])c2nc3ccccc3c(N)c12
[1]
  TGI: > 10 µM
[2]
  TGI: 2.28 µM
[4]
  TGI: 1.83 µM
[5]
  TGI: 2.04 µM
[6]
  TGI: > 10 µM
[7]
  TGI: 1.24 µM
[8]
  TGI: 4.07 µM
[9]
  TGI: > 10 µM
[10]
  TGI: 2.14 µM
[12]
  TGI: 1.75 µM
[11]
  TGI: 3.75 µM

## C=C1CC(OC(C)=O)/C=C(/C)CCC(C(C)(C)O)CC1O (configuration not stated)
[1]
  TGI: > 100 µM
[2]
  TGI: > 100 µM
[3]
  TGI: > 100 µM
[4]
  TGI: > 100 µM
[5]
  TGI: > 100 µM
[6]
  TGI: > 100 µM
[7]
  TGI: > 100 µM
[8]
  TGI: > 100 µM
[9]
  TGI: > 100 µM
[10]
  TGI: > 100 µM
[11]
  TGI: > 100 µM

## Cc1cccc2c1Oc1cc(Cl)ccc1C2NC(=O)CCN1CCCCC1 (configuration not stated)
[1]
  TGI: 30.2 µM
[2]
  TGI: 27.1 µM
[3]
  TGI: 31.3 µM
[5]
  TGI: 28 µM
[6]
  TGI: 33 µM
[7]
  TGI: 31.6 µM
[8]
  TGI: 30 µM
[9]
  TGI: 29.8 µM
[10]
  TGI: 33.1 µM
[12]
  TGI: 32 µM

## CN1CCc2c(sc3nc(Nc4ccccc4)n(N)c(=O)c23)C1
[1]
  TGI: > 100 µM
[2]
  TGI: > 100 µM
[4]
  TGI: > 100 µM
[5]
  TGI: > 100 µM
[6]
  TGI: > 100 µM
[7]
  TGI: > 100 µM
[8]
  TGI: > 100 µM
[9]
  TGI: > 100 µM
[10]
  TGI: > 100 µM
[12]
  TGI: > 100 µM
[11]
  TGI: > 100 µM

## NC(CCCCCP(=O)(O)O)C(=O)O (configuration not stated)
[1]
  TGI: > 100 µM
[2]
  TGI: > 100 µM
[3]
  TGI: > 100 µM
[4]
  TGI: > 100 µM
[6]
  TGI: > 100 µM
[7]
  TGI: > 100 µM
[8]
  TGI: > 100 µM
[9]
  TGI: > 100 µM
[10]
  TGI: > 100 µM
[12]
  TGI: > 100 µM
[11]
  TGI: > 100 µM

## O=C(ON=c1c2ccccc2ccc2ccccc12)c1cc([N+](=O)[O-])cc([N+](=O)[O-])c1
[1]
  TGI: > 100 µM
[2]
  TGI: > 100 µM
[4]
  TGI: > 100 µM
[5]
  TGI: > 100 µM
[6]
  TGI: > 100 µM
[7]
  TGI: > 100 µM
[8]
  TGI: > 100 µM
[10]
  TGI: > 100 µM
[12]
  TGI: > 100 µM
[11]
  TGI: > 100 µM

## CN(C)C(=S)Nc1nnc(NC23CC4CC(CC(C4)C2)C3)s1
[1]
  TGI: > 100 µM
[2]
  TGI: 19.2 µM
[3]
  TGI: 34.9 µM
[5]
  TGI: 38.2 µM
[6]
  TGI: 38.1 µM
[7]
  TGI: 26.8 µM
[8]
  TGI: 32.6 µM
[12]
  TGI: > 100 µM
[11]
  TGI: 64 µM

## C=C1C(=O)OC2/C=C(\C)CC/C=C(/C)CC(OC(=O)/C(=C/CO)CO)C12 (configuration not stated)
[1]
  TGI: > 100 µM
[2]
  TGI: 75.3 µM
[3]
  TGI: 39.9 µM
[4]
  TGI: > 100 µM
[5]
  TGI: 88.8 µM
[7]
  TGI: > 100 µM
[8]
  TGI: 33.1 µM
[10]
  TGI: 47.2 µM
[12]
  TGI: > 100 µM
[11]
  TGI: 33.5 µM

## CN(C)c1cccc(-c2cc(=O)c3ccccc3[nH]2)c1
[1]
  TGI: > 100 µM
[2]
  TGI: > 100 µM
[3]
  TGI: 57.6 µM
[5]
  TGI: > 100 µM
[6]
  TGI: > 100 µM
[7]
  TGI: > 100 µM
[8]
  TGI: > 100 µM
[11]
  TGI: > 100 µM

## Cc1ccc2nc3c(C(=O)NCCN(C)C)cccc3cc2c1
[1]
  TGI: 4.87 µM
[2]
  TGI: 4.79 µM
[6]
  TGI: 7.06 µM
[7]
  TGI: 2.36 µM
[8]
  TGI: 6.77 µM
[12]
  TGI: 7.83 µM

## NNC(N)=Nc1cccc2ccccc12
[1]
  TGI: > 100 µM
[2]
  TGI: > 100 µM
[4]
  TGI: > 100 µM
[5]
  TGI: > 100 µM
[6]
  TGI: > 100 µM
[7]
  TGI: > 100 µM
[8]
  TGI: > 100 µM
[9]
  TGI: > 100 µM
[12]
  TGI: > 100 µM
[11]
  TGI: > 100 µM

## CSc1ccc2c(c1)c(CCN)c(C)n2Cc1ccc(Cl)c(Cl)c1
[2]
  GI50: 1490 nM
  TGI: 2.92 µM
[4]
  GI50: 2050 nM
  TGI: 4.8 µM
[11]
  GI50: 1590 nM
  TGI: 3.08 µM

## O=C1C(NS(=O)(=O)c2ccccc2)=C(n2cnc3ccccc32)C(=O)c2ccccc21
[1]
  TGI: > 100 µM
[2]
  TGI: > 100 µM
[3]
  TGI: 53.7 µM
[4]
  TGI: > 100 µM
[5]
  TGI: > 100 µM
[6]
  TGI: > 100 µM
[7]
  TGI: > 100 µM
[8]
  TGI: > 100 µM
[10]
  TGI: > 100 µM
[12]
  TGI: > 100 µM
[11]
  TGI: > 100 µM

## CC(/C=C/c1ncccc1OCCCCCC(=O)O)=N\NC1=NCCN1
[1]
  TGI: > 100 µM
[2]
  TGI: > 100 µM
[3]
  TGI: > 100 µM
[6]
  TGI: > 100 µM
[7]
  TGI: > 100 µM
[8]
  TGI: > 100 µM
[12]
  TGI: > 100 µM
[11]
  TGI: > 100 µM

## C#CCNC(=O)CCC(N)C(=O)O (configuration not stated)
[1]
  TGI: > 100 µM
[2]
  TGI: > 100 µM
[3]
  TGI: > 100 µM
[6]
  TGI: > 100 µM
[7]
  TGI: > 100 µM
[8]
  TGI: > 100 µM
[12]
  TGI: > 100 µM

## O=C(NC(=O)c1cn(CCN2CCNCC2)c(=O)[nH]c1=O)OCc1ccccc1
[1]
  TGI: > 100 µM
[2]
  TGI: > 100 µM
[3]
  TGI: > 100 µM
[6]
  TGI: > 100 µM
[7]
  TGI: > 100 µM
[8]
  TGI: > 100 µM
[12]
  TGI: > 100 µM
[11]
  TGI: > 100 µM

## CC(=O)OCC1C(C(C)OC(C)=O)CCC2C1CCC1(C)C(OC(C)=O)CCC21 (configuration not stated)
[1]
  TGI: 46.2 µM
[2]
  TGI: 32.8 µM
[3]
  TGI: 37.5 µM
[5]
  TGI: 49.5 µM
[6]
  TGI: 34.8 µM
[7]
  TGI: 31.8 µM
[8]
  TGI: 26.3 µM
[9]
  TGI: 65.7 µM
[10]
  TGI: 37 µM
[12]
  TGI: 36.8 µM
[11]
  TGI: 28.3 µM

## COc1ccc2c(=O)c([Se]c3coc4cc(OC)ccc4c3=O)coc2c1
[1]
  TGI: > 100 µM
[2]
  TGI: > 100 µM
[3]
  TGI: > 100 µM
[5]
  TGI: > 100 µM
[6]
  TGI: > 100 µM
[7]
  TGI: > 100 µM
[8]
  TGI: > 100 µM
[12]
  TGI: > 100 µM
[11]
  TGI: > 100 µM
